# Data published in PMC12223475, “Two Key Ferredoxins for Nitrogen Fixation Have Different Specificities and Biophysical Properties” (Chemistry (Weinheim an Der Bergstrasse, Germany), 2025).
# Biological target: T1, FdC (Rhodobacter capsulatus, UniProt D5ARY7)
# T1 construct: gene fdxC; full length, N-terminal Met replaced by Strep-tag (MAWSHPQFEK), tag kept; E. coli BL21-AI; monomer
# Assay: X-ray crystallography; UV-Vis; EPR
# Type: binding
# Conditions: 1.7 Å; anaerobic crystallisation, pH 8.0; ligands C38, C43, C46, C81
# T1 sequence (D5ARY7 2-95): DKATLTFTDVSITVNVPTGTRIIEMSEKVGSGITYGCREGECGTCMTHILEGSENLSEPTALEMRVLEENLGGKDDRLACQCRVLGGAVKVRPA
structure (smiles),measurement,value
[S]1[Fe][S][Fe]1 [[Fe2S2]-cluster],X-ray crystallography; UV-Vis; EPR,The globular and monomeric FdC coordinates a [Fe2S2]‐cluster
